According to patent publication US20260027244A1, “SILICON-BASED FLUORIDE ACCEPTOR GROUPS FOR RADIOPHARMACEUTICALS” (Technische Universität München, priority 2022, published 2026):
Read-outs that look alike come from different tables or passages of the source.

What was measured:
[1] = target: T1, human serum albumin (HSA) (Homo sapiens, UniProt P02768); test: HSA binding of reference substances from literature (HPAC calibration); conditions: logarithmic value of HSA binding values
Method: HSA binding of the PSMA-addressing ligands by HPAC was determined according to a previously published procedure via HPLC. […] Mobile phase A was a freshly prepared 50 mM aqueous solution of NH4OAc (pH 6.9) and mobile phase B was isopropanol (HPLC grade, VWR). The applied gradient for all experiments was 100% A (0 to 3 min), followed by 80% A (3 to 40 min). […] (12,13). All substances were dissolved in a 1:1 mixture (v/v) of isopropanol and a 50 mM aqueous solution of NH4OAc (pH 6.9) with a final concentration of 0.5 mg/mL. Non-linear regression was established with the OriginPro 2016G software (Northampton, United States).

[2] = target: T1, human serum albumin (HSA); conditions: HSA binding values obtained from literature; cited from earlier work
PSMA = target: T2, PSMA (Homo sapiens, UniProt Q04609); test: PSMA affinity (IC50) on LNCaP cells, competition with [125I]I-BA-KuE; format: binding
T2 construct: host or cells: LNCaP cells
T2 sequence (Q04609 whole entry): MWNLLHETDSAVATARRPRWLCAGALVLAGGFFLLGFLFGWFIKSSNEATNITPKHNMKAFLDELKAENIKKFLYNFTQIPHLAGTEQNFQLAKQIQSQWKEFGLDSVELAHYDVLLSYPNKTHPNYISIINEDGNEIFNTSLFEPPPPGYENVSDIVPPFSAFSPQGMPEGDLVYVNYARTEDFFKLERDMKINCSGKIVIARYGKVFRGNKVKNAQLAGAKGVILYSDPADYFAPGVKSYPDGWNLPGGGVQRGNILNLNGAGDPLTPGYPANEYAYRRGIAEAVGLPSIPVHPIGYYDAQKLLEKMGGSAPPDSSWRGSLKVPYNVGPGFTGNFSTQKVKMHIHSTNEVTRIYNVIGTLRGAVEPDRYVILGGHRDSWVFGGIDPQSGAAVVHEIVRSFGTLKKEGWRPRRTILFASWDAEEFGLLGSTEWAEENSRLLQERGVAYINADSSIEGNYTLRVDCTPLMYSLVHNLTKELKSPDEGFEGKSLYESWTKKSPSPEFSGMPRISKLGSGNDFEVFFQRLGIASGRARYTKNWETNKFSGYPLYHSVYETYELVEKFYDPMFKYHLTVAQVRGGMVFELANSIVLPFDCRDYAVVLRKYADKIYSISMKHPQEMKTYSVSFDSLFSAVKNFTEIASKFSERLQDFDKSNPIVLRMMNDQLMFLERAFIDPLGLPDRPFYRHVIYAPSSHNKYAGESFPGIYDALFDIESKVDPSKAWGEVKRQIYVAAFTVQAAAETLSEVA
Method: A mixture of trypsin and EDTA (0.05%, 0.02%) in PBS (Biochrom GmbH, Berlin, Germany) was used to harvest cells. Cells were counted with a Neubauer hemocytometer (Paul Marienfeld, Lauda-Königshofen, Germany).
In the case of metal-complexed ligands, the crude reaction mixture was diluted analogously, without further purification. Cells were harvested 24±2 hours prior to the experiment and seeded in 24-well plates (1.5×10^5 cells in 1 mL/well). After removal of the culture medium, the cells were carefully washed with 500 μL of HBSS (1% BSA) and left 15 min on ice for equilibration in 200 μL HBSS (1% BSA). […] For each concentration, the experiment was performed in triplicate. After incubation on ice for 60 min, the experiment was terminated by removal of the medium and consecutive rinsing with 200 μL of HBSS (1% BSA). The media of both steps were combined in one fraction and represent the amount of free radioligand. Afterwards, the cells were lysed with 250 μL of NaOH (1 M in H2O) for at least 15 min. After a washing step with NaOH (250 μL, 1 M in H2O), both fractions, representing the amount of bound ligand, were united. Quantification of all collected fractions was accomplished in a γ-counter. IC50 values were calculated using GraphPad PRISM software (GraphPad Software Inc., La Jolla, United States). The whole PSMA-affinity determination was carried out at least three times per ligand.

[3] = n-octanol-water partition coefficient (log D7.4); format: physicochemical
Method: In the development process of alternative SiFA-analogs, the influence of the substitution pattern at the aromatic moiety on lipophilicity is of particular importance. […] Assuming to observe a better differentiation in properties of the various prosthetic groups, investigations were conducted on small model peptides. Corresponding log D7.4-values (n≥8) are depicted in FIG. 3.
Approximately 1 MBq of the [^177Lu]Lu-labeled tracer or 0.5 MBq of the [^18F]F-labeled tracer was dissolved in 1 mL of n-octanol/PBS (v/v=1:1) in a reaction vial (1.5 mL). After vigorous mixing of the suspension for 3 min at rt, the vial was centrifuged at 15000 g for 5 min (Biofuge 15, Heraus Sepatech, Osterode, Germany) and 100 μL aliquots of both layers were measured in a γ-counter. The experiment was repeated (n≥6).

[4] = target: T1, human serum albumin (HSA); test: Human serum albumin (HSA) binding by high performance affinity chromatography (HPAC); format: in vitro ADME; conditions: radiohybrid SSTR ligands, Table 4
Method: Investigations about the binding strength of the SiFA-MPs to human serum albumin (HSA) were conducted using high performance affinity chromatography (HPAC). The corresponding gold-standards ((4-SiFA)Bz-MPs) display—as expected from published as well as internal data—a quite strong HSA binding. This is associated with a comparably slow and unfavored blood clearance in vivo.

[5] = Biodistribution in LNCaP tumor-bearing male CB17-SCID mice; format: in vivo; conditions: 1 h p.i.
Excerpt: Data expressed as percentage of the injected dose per gram (% ID/g), mean±standard deviation. Data of [18F]F, ^natGa-rhPSMA-7.3 were previously published by our group. (2)
Mice were used for experiments when tumors had grown to a diameter of 2-6 mm (4-20 weeks after inoculation).
Results are all decay-corrected and given in % injected dose per gram of tissue (% ID/g).

[6] = 1 h p.i.; previously published data; cited from earlier work

T1 sequence (P02768 25-609): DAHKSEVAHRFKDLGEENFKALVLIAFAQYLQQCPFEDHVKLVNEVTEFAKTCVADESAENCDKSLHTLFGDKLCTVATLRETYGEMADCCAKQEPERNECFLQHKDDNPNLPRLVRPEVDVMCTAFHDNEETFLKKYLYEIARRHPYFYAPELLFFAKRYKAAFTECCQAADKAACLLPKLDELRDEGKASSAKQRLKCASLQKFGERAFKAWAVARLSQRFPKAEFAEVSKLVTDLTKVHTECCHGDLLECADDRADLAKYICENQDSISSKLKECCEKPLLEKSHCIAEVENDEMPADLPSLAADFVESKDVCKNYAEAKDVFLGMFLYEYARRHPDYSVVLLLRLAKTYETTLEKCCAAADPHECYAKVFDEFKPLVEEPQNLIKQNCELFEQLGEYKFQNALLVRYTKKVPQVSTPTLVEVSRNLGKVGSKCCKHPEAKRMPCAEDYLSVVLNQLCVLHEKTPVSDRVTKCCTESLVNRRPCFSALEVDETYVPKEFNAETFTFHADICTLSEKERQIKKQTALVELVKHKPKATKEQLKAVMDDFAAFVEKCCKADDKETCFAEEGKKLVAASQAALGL

**Q.** What does the source list for `Nc1ccccc1` [Aniline]?
**A.** Log K HSA [1]: −0.79; lit. HSA [%] [2]: 14.06%

**Q.** For `O=C(O)c1ccccc1` [Benzoic Acid], which “lit. HSA [%]” value [2] is on record?
**A.** 34.27%

**Q.** What does the source list for `CC(C)(C)[Si](F)(c1ccc(C(=O)NCCCC[C@H](NC(=O)N[C@@H](CCC(=O)O)C(=O)O)C(=O)O)cc1)C(C)(C)C` [Entry 1]?
**A.** IC50 (PSMA): 327 ± 73 nM; logD7.4 (n = 6) ([3]; pH 7.4): −1.95 ± 0.09

**Q.** Which “HSA binding (HPAC) [%]” value [4] does the source give for `C[C@@H](O)[C@H](NC(=O)[C@@H]1CSSC[C@H](NC(=O)[C@@H](Cc2ccccc2)NC(=O)CN2CCN(CC(=O)O)CCN(CC(=O)NCCNC(=O)c3cc(C(=O)O)cc([Si](F)(C(C)(C)C)C(C)(C)C)c3)CCN(CC(=O)O)CC2)C(=O)N[C@@H](Cc2ccc(O)cc2)C(=O)N[C@H](Cc2c[nH]c3ccccc23)C(=O)N[C@@H](CCCCN)C(=O)N[C@@H]([C@@H](C)O)C(=O)N1)C(=O)O` [Entry 4, ^natGa-(5-SiFA)Ip-EDA-DOTATATE, metal not drawn] here?
**A.** 97.4%

**Q.** What about the “logD7.4 (n = 6)” value ([3]; 18F-labeled compound, SSTR ligands) of the same compound?
**A.** −0.67 ± 0.03

**Q.** With `COc1ccc(Cl)cc1C(=O)NCCc1ccc(S(=O)(=O)NC(=O)NC2CCCCC2)cc1` [Glibenclamide] as the compound, how does the “Log K HSA” value [1] read?
**A.** 1.69

**Q.** And the “lit. HSA [%]” value [2]?
**A.** 99.00%

**Q.** For `CCCC[C@@H](C(=O)N[C@@H](CC(=O)O)C(=O)N[C@@H](Cc1cccc2ccccc12)C(N)=O)N(C)C(=O)[C@H](Cc1c[nH]c2ccccc12)NC(=O)CNC(=O)[C@H](Cc1ccc(O)cc1)NC(=O)[C@H](C)NC(=O)[C@@H](CCC(=O)O)NC(=O)CN1CCN(CC(=O)O)CCN(CC(=O)O)CCN(CC(=O)O)CC1` [Lu-DOTA-MGS5], which logD ([3]; pH 7.4) is on record?
**A.** -2.25

**Q.** For `CC(C)(C)[Si](F)(c1cccc(C(=O)NCCCC[C@H](NC(=O)N[C@@H](CCC(=O)O)C(=O)O)C(=O)O)c1)C(C)(C)C` [PSMA-2], which increase in affinity (PSMA; shift of silyl group from para (PSMA-1) to meta position) is on record?
**A.** more than 20 fold

**Q.** With `CC(C)(C)[Si](F)(c1cc(C(=O)O)cc(C(=O)NCCCC[C@H](NC(=O)N[C@@H](CCC(=O)O)C(=O)O)C(=O)O)c1)C(C)(C)C` [PSMA-3] as the compound, how does the “further improvement of affinity, factor” value (PSMA; attaching a carboxylic acid, compared to PSMA-2) read?
**A.** two

**Q.** And the accumulation in intestine [5]?
**A.** 17.7±1.6 % ID/g

**Q.** What about the accumulation in liver [5] of the same compound?
**A.** 7.2±4.8 % ID/g

**Q.** And the blood value [5]?
**A.** 0.55 % ID/g

**Q.** And the bone uptake [5]?
**A.** 1.16±0.22 % ID/g

**Q.** And the kidney value [5]?
**A.** 67.1±13.9 % ID/g

**Q.** Which results are given for `Oc1ccccc1` [Phenol]?
**A.** Log K HSA [1]: −0.59; lit. HSA [%] [2]: 20.69%

**Q.** Which “lit. HSA [%]” value [2] does the source give for `CCCN(CCC)S(=O)(=O)c1ccc(C(=O)O)cc1` [Probenecid] here?
**A.** 95.00%

**Q.** Which blood value [6] does the source give for `CC(C)(C)[Si](F)(c1ccc(C(=O)NC[C@@H](NC(=O)CC[C@@H](C(=O)O)N2CCN(CC(=O)O)CCN(CC(=O)O)CCN(CC(=O)O)CC2)C(=O)N[C@H](CCCCC(=O)NCCC(=O)NCCC[C@@H](NC(=O)CC[C@H](NC(=O)N[C@@H](CCC(=O)O)C(=O)O)C(=O)O)C(=O)O)C(=O)O)cc1)C(C)(C)C` [[^18F]F, ^natGa-rhPSMA-7.3, metal not drawn] here?
**A.** 0.96 % ID/g

**Q.** And the bone uptake [6]?
**A.** 0.38±0.32 % ID/g
